Experimental data taken from patent US11491165B2 (Kinoxis Therapeutics Pty Ltd, priority 2016, dated 2022).
Blank lines part the entries; values can stand above or below the compound they belong to.

Experiments:
[1] = target: T1, oxytocin receptor (OXTR), hOTR (Homo sapiens, UniProt P30559); assay: Competition radioligand binding, [3H]-oxytocin, OTR-expressing HEK293 membranes; conditions: [3H]-oxytocin 10 nM, 90 min 4 °C
T1 construct: expressed in transfected cells
T1 sequence (P30559 1-389): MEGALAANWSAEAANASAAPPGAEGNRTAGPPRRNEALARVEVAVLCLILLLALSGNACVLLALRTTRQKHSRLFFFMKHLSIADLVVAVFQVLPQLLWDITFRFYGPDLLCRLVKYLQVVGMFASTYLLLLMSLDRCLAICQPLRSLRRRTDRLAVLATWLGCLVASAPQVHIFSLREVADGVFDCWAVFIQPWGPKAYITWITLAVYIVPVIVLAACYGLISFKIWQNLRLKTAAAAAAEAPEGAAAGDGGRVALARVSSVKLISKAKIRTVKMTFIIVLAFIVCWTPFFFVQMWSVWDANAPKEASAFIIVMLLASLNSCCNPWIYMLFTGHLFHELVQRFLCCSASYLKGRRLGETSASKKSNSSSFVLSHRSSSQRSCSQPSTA
Description: (§1) Human embryonic kidney cells (HEK-293) transfected to stably express untagged hOTR and V1aR using the Flp-In™ T-REx™ system (Life Technologies, Carlsbad, Calif. USA) were established as reported in Jorgensen et al., 2016 (the entire disclosure of which is hereby incorporated by reference). Cells were subsequently maintained in 10% DMEM containing hygromycin (80 μg/ml), penicillin (100 U/ml), streptomycin (0.1 mg/ml) and blasticidine S hydrochloride (15 μg/ml).
(§2) To induce receptor expression, cells were incubated with tetracycline (2 μg/mL) for 48 h. PBS with 5 mM EDTA (pH 7.4) was used to detach OTR and V1aR-expressing HEK293 cells from culture flasks. Harvested cells were centrifuged at 1200 g for 5 min and were resuspended in homogenization buffer (50 mM HEPES, 5 mM EDTA, 5 mM MgCl2; pH 7.4) prior to homogenization using an Ultra-Turrax homogeniser (IKA, Wilmington, N.C., USA). Homogenates were centrifuged three times for 30 min at 48.000 g, 4° C. for 30 min and membrane pellets resuspended in 50 mM Tris HCl, 5 mM MgCl2 (pH 7.4). A bicinchoninic acid assay was used according to the manufacturer's protocol (Bio-Rad, Hercules. Calif., USA) to measure final protein concentration. Membranes were stored at −80° C. until use in competition radioligand binding studies.
(§3) Reactions were incubated for 90 min at 4° C. to reach equilibrium, and terminated by rapid filtration over glass fibre filters (Whatman GF/A […]; Millipore, Darmstadt, Germany), and washing with ice-cold reaction buffer. Filters were dried, then incubated with Microscint 0 (Perkin Elmer) for 30 min before radioactivity was detected with a Microbeta2 2450 microplate-reader (Perkin Elmer). […] Specific binding in the presence of compounds was expressed as a percentage of specific binding in the presence of vehicle control. A sum-of-squares F-test was used to compare the goodness of fit of one-site, two-site and sigmoidal with variable hill slope binding models, and to calculate Ki's using Graphpad Prism (Graphpad Software, La Jolla, Calif., USA).

[2] = target: T2, vasopressin 1a receptor (V1aR) (Homo sapiens, UniProt P37288); assay: Competition radioligand binding, [3H]-vasopressin, V1aR-expressing HEK293 membranes; conditions: [3H]-vasopressin 2 nM, 90 min 4 °C
T2 construct: expressed in transfected cells
Description: as §1, §2, §3

[3] = target: T1, oxytocin receptor (OXTR), hOTR; assay: IP1 accumulation assay, OTR-expressing HEK-293 cells (agonist and antagonist assessment); type: cell-based; conditions: for EC50: IP1, 1 h; for Emax: HEK293, read-out: OXTR Emax (% OXT); for OV function: ratio of OXTR functional potency to V1aR functional potency, 'OT only' = function at OXTR only
Description: as §1
(§4) OTR or V1aR-expressing HEK-293 cells were seeded onto poly-L-lysine (100 μg/ml)-coated 384-well plates at a density of 8.75×10^3 cells per well. Cells were incubated in tetracycline (2 μg/mL) for 48 h to induce receptor expression. Intracellular IP1 levels induced by activation of the Gq protein coupled to the OTR and V1aR was indexed using the HTRF IP-One kit (CisBio International, Bedford, Mass., USA), according to manufacturer's protocol. For agonist assessment, cells were incubated with logarithmically-spaced concentrations of compounds (1 nM-100 μM) for 1 h prior to the addition of Ab-Cryptate and IP1-d2 for 1 h. The contents of each well were transferred to a white-walled proxy plate (Perkin Elmer) and fluorescence read using a Pherastar Microplate reader (BMG Labtech, Cary, N.C., USA). For antagonist assessment, cells were incubated an ˜EC70 concentration of OT (30 nM) or AVP (25 nM) mixed with compounds (1 nM-100 μM) or vehicle control for 1 h. IP1 levels in the presence of compounds and OT or AVP were expressed as a percentage of levels seen with OT or AVP in the presence of vehicle control. Concentration response curves for OT and AVP were determined after 5 min incubation in drug or vehicle, and the data fitted using GraphPad PRISM to a 4-parameter logistic equation of the form y=Min+(Max−Min)/(1+10^((logEC50−X)*n)) where X is drug concentration and n is the H-ill slope. Data represent the mean±s.d. of at least 3 independent experiments, each in duplicate.

[4] = target: T2, vasopressin 1a receptor (V1aR); assay: IP1 accumulation assay, V1aR-expressing HEK-293 cells (agonist and antagonist assessment); type: cell-based; conditions: for EC50: agonist assessment, IP1, 1 h; for IC50: antagonist assessment vs AVP 25 nM (~EC70), IP1
Description: Cells were subsequently maintained in 10% DMEM containing hygromycin (80 μg/ml), penicillin (100 U/ml), streptomycin (0.1 mg/ml) and blasticidine S hydrochloride (15 μg/ml).
as §4, with “Cells” for “OTR or V1aR-expressing HEK-293 cells were seeded onto poly-L-lysine (100 μg/ml)-coated 384-well plates at a density of 8.75×10^3 cells per well. Cells”, “For antagonist assessment, cells were incubated an ˜EC70 concentration of OT (30 nM) or AVP (25 nM) mixed with compounds (1 nM-100 μM) or vehicle control for 1 h.” left out

T2 sequence (P37288 whole entry): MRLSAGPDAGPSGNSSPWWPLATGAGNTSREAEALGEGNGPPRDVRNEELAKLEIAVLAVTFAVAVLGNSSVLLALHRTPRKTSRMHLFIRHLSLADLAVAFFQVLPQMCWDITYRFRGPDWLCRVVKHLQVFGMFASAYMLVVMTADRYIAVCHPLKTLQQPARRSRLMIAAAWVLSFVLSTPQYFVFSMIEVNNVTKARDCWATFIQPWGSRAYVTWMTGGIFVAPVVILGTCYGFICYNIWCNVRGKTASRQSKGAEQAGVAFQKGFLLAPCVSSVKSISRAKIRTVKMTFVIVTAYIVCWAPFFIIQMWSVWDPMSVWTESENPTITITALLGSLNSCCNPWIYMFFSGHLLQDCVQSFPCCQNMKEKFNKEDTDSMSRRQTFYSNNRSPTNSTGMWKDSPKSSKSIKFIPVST

melting point: 231 to 233 °C
SMILES: Cn1ncc2c1Nc1ccccc1N(C(=O)c1cccc3ccccc13)C2 [TRGA-89, (1-methyl-4,10-dihydrobenzo[b]pyrazolo[3,4-e][1,4]diazepin-5 (1H)-yl)(naphthalen-1-YI)methanone]

Ki [1]: 22 ± 8 nM
Ki [2]: 1.8 ± 0.6 nM
Emax [3]: 8%
EC50 ([3]; agonist assessment): 41 ± 15 nM
OV function [3]: 0.02
EC50 [4]: > 10000 nM
IC50 [4]: 1650 ± 75 nM
SMILES: CCc1ccc(C(=O)N2Cc3cnn(C)c3Nc3ccccc32)cc1 [TRGA99, (4-ethylphenyl)(1-methyl-4,10-dihydrobenzo[b]pyrazolo[3,4-e][1,4]diazepin-5 (1H)-yl)methanone]

Ki [1]: 159 ± 32 nM
Ki [2]: 18 ± 1 nM
Emax [3]: 13%
EC50 ([3]; agonist assessment): 91 ± 25 nM
OV function [3]: 0.06
EC50 [4]: > 10000 nM
IC50 [4]: 1530 ± 444 nM
SMILES: Cn1ncc2c1Nc1ccccc1N(C(=O)c1ccc3c(c1)OCO3)C2 [TRGA95, benzo[d][1,3]dioxol-5-yl(1-methyl-4,10-dihydrobenzo[b]pyrazolo[3,4-e][1,4]diazepin-5 (1H)-yl)methanone]

melting point: 228 to 243 °C
SMILES: Cn1ncc2c1Nc1ccccc1N(C(=O)c1ccc3ccccc3c1)C2 [TRGA-81, (1-methyl-4,10-dihydrobenzo[b]pyrazolo[3,4-e][1,4]diazepin-5 (1H)-yl)(naphthalen-2-yl)methanone]

The remaining lines, values behind:

SMILES: COc1ccccc1C(=O)N1Cc2cnn(C)c2Nc2ccccc21 [WJ0659, (2-Methoxyphenyl)(1-methyl-4,10-dihydrobenzo[b]pyrazolo[3,4-e][1,4]diazepin-5 (1H)-yl)methanone]
melting point: 281 to 282 °C (dec.)

SMILES: Cn1ncc2c1Nc1ccccc1N(C(=O)C1C(C)(C)C1(C)C)C2 [TRGA111, (1-methyl-4,10-dihydrobenzo[b]pyrazolo[3,4-e][1,4]diazepin-5 (1H)-yl)(2,2,3,3-tetramethylcyclopropyl)methanone]
Ki [1]: > 10000 nM
Ki [2]: > 10000 nM
EC50 ([3]; agonist assessment): > 10000 nM
IC50 ([3]; antagonist assessment vs OT 30 nM (~EC70), IP1): > 10000 nM
EC50 [4]: > 10000 nM
IC50 [4]: > 10000 nM

SMILES: Cn1ncc2c1Nc1ccccc1N(C(=O)c1cc(OCc3ccccc3)cc(OCc3ccccc3)c1)C2 [Example 9, (3,5-Bis(benzyloxy)phenyl)(1-methyl-4,10-dihydrobenzo[b]pyrazolo[3,4-e][1,4]diazepin-5 (1H)-yl)methanone]
melting point: 221 to 224 °C

SMILES: Cn1ncc2c1Nc1ccccc1N(C(=O)C1CCCCC1)C2 [CA6 (KA), cyclohexyl(1-methyl-4,10-dihydrobenzo[b]pyrazolo[3,4-e][1,4]diazepin-5 (1H)-yl)methanone]
Ki [1]: 1080 ± 323 nM
Ki [2]: 236 ± 75 nM
Emax [3]: 17%
EC50 ([3]; agonist assessment): 481 ± 61 nM
OV function [3]: <0.04
EC50 [4]: > 10000 nM
IC50 [4]: > 10000 nM

SMILES: Cn1ncc2c1Nc1ccccc1N(C(=O)c1ccc(Br)cc1)C2 [WJ0820, (4-Bromophenyl)(1-methyl-4,10-dihydrobenzo[b]pyrazolo[3,4-e][1,4]diazepin-5 (1H)-yl)methanone]
melting point: 249 to 251 °C

SMILES: Cn1ncc2c1Nc1ccccc1N(C(=O)C13C4C5C6C4C1C6C53)C2 (stereo not shown) [QB]
melting point: 194 to 203 °C

SMILES: CC1CCC(C(=O)N2Cc3cnn(C)c3Nc3ccccc32)CC1 (stereo not shown) [TAR-C41, (1-methyl-4,10-dihydrobenzo[b]pyrazolo[3,4-e][1,4]diazepin-5 (1H)-yl)(4-methylcyclohexyl)methanone]
melting point: 234 to 239 °C

SMILES: Cc1cc(C(=O)N2Cc3cnn(C)c3Nc3ccccc32)ccc1CNC(=O)N1CCN(Cc2cc(O)cc(O)c2)CC1 [WAY, reference compound]
Emax [3]: 45%
OV function [3]: 0.69

SMILES: Cc1cccc(C(=O)N2Cc3cnn(C)c3Nc3ccccc32)c1 [WJ0823, (1-Methyl-4,10-dihydrobenzo[b]pyrazolo[3,4-e][1,4]diazepin-5 (1H)-yl)(m-tolyl)methanone]
Ki [1]: 553 ± 155 nM
Emax [3]: 16.8%
EC50 (OXTR agonist potency, mean ± s.d.) ([3]; agonist assessment, IP1): 420 ± 37 nM
EC50 ([3]; agonist assessment): 407 ± 102 nM
EC50 [4]: > 10000 nM
IC50 [4]: > 10000 nM
melting point: 254 to 256 °C

SMILES: Cn1ncc2c1Nc1ccccc1N(C(=O)c1ccccc1Br)C2 [WJ0822, (2-Bromophenyl)(1-methyl-4,10-dihydrobenzo[b]pyrazolo[3,4-e][1,4]diazepin-5 (1H)-yl)methanone]
melting point: 244 to 246 °C

SMILES: Cn1ncc2c1Nc1ccccc1N(C(=O)c1ccc(C(=O)O)cc1)C2 [TAR-C077, 4-(1-methyl-1,4,5,10-tetrahydrobenzo[b]pyrazolo[3,4-e][1,4]diazepine-5-carbonyl)benzoic acid]
melting point: > 300 °C

SMILES: Cn1ncc2c1Nc1ccccc1N(C(=O)c1ccc(O)cc1)C2 [TAR-B049, (4-hydroxyphenyl)(1-methyl-4,10-dihydrobenzo[b]pyrazolo[3,4-e][1,4]diazepin-5 (1H)-yl)methanone]
melting point: > 300 °C

SMILES: Cn1ncc2c1Nc1ccccc1N(C(=O)c1cccc(Br)c1)C2 [WJ0821, (3-Bromophenyl)(1-methyl-4,10-dihydrobenzo[b]pyrazolo[3,4-e][1,4]diazepin-5 (1H)-yl)methanone]
melting point: 218 to 220 °C

SMILES: COC(=O)C12CCC(C(=O)N3Cc4cnn(C)c4Nc4ccccc43)(CC1)CC2 [BcO-MC, methyl 4-(1-methyl-1,4,5,10-tetrahydrobenzo[b]pyrazolo[3,4-e][1,4]diazepine-5-carbonyl)bicyclo[2.2.2]octane-1-carboxylate]
melting point: 198 to 211 °C

SMILES: CCCCCCOc1ccc(C(=O)N2Cc3cnn(C)c3Nc3ccccc32)cc1 [TAR-B085, (4-(hexyloxy)phenyl)(1-methyl-4,10-dihydrobenzo[b]pyrazolo[3,4-e][1,4]diazepin-5 (1H)-yl)methanone]
melting point: 204 to 206 °C
